In patent publication US20250171437A1 (Agios Pharmaceuticals,Inc., priority 2022, published 2025):

Target: T1, human PAH with the R408W mutation (A375 R408W cells) (Homo sapiens, UniProt P00439, R408W)
T1 construct: expressed in transfected cells
T1 sequence (P00439 1-452 R408W): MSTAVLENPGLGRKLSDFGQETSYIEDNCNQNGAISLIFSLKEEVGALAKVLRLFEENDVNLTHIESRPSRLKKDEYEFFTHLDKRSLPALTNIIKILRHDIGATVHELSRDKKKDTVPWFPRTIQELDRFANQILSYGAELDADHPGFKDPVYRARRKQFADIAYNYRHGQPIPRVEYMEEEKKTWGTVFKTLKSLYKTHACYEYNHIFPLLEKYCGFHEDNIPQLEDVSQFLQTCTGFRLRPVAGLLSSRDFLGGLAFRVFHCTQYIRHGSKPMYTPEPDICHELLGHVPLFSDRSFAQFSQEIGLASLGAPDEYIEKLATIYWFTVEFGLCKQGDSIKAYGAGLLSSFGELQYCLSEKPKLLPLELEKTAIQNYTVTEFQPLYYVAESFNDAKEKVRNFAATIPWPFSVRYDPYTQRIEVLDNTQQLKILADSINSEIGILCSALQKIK
Assay: Cell Based Phenylalanine Flux Assay
Conditions: A375 R408W cells; 24 hrs with compound, then 20 μM sepiapterin and 800 μM 13C9,15N-Phenylalanine for 4 hours; 13C-Tyrosine by LC-MS; average where tested multiple times
Outline: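 AC50 is derived from LC-MS of 13C-tyrosine in the media after a 4 h pulse of 800 μM 13C9,15N-phenylalanine plus 20 μM sepiapterin. The A375 R408W PAH cells had received duplicate 10-point, 2-fold compound dilutions (0.5% DMSO) for 24 h beforehand.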

| AC50 | SMILES |
| --- | --- |
| ≤ 500 nM | Cc1ccc2c(C(=O)N3CCc4[nH]cnc4[C@H]3c3nc4c(F)cccc4o3)cnn2c1 [Example 537, (S)-(4-(4-fluorobenzo[d]oxazol-2-yl)-6,7-dihydro-1H-imidazo[4,5-c]pyridin-5(4H)-yl)(6-methylpyrazolo[1,5-a]pyridin-3-yl)methanone] |
| 1000 to 5000 nM | Cc1ccc2c(C(=O)N3CCc4[nH]cnc4[C@@H]3c3nc4c(F)cccc4o3)cnn2c1 [Example 538, (R)-(4-(4-fluorobenzo[d]oxazol-2-yl)-6,7-dihydro-1H-imidazo[4,5-c]pyridin-5(4H)-yl)(6-methylpyrazolo[1,5-a]pyridin-3-yl)methanone] |
| ≤ 500 nM | COc1ccc2c(C(=O)N3CCc4[nH]cnc4[C@H]3c3nc4c(F)cccc4o3)cnn2c1 [Example 539, (S)-(4-(4-fluorobenzo[d]oxazol-2-yl)-6,7-dihydro-1H-imidazo[4,5-c]pyridin-5(4H)-yl)(6-methoxypyrazolo[1,5-a]pyridin-3-yl)methanone] |
| 1000 to 5000 nM | COc1ccc2c(C(=O)N3CCc4[nH]cnc4[C@@H]3c3nc4c(F)cccc4o3)cnn2c1 [Example 540, (R)-(4-(4-fluorobenzo[d]oxazol-2-yl)-6,7-dihydro-1H-imidazo[4,5-c]pyridin-5(4H)-yl)(6-methoxypyrazolo[1,5-a]pyridin-3-yl)methanone] |
| ≤ 500 nM | Cn1cc(-c2ccc3c(C(=O)N4CCc5[nH]cnc5[C@H]4c4nc5c(F)cccc5o4)cnn3c2)cn1 [Example 541, (S)-(4-(4-fluorobenzo[d]oxazol-2-yl)-6,7-dihydro-1H-imidazo[4,5-c]pyridin-5(4H)-yl)(6-(1-methyl-1H-pyrazol-4-yl)pyrazolo[1,5-a]pyridin-3-yl)methanone] |
| 1000 to 5000 nM | Cn1cc(-c2ccc3c(C(=O)N4CCc5[nH]cnc5[C@@H]4c4nc5c(F)cccc5o4)cnn3c2)cn1 [Example 542, (R)-(4-(4-fluorobenzo[d]oxazol-2-yl)-6,7-dihydro-1H-imidazo[4,5-c]pyridin-5(4H)-yl)(6-(1-methyl-1H-pyrazol-4-yl)pyrazolo[1,5-a]pyridin-3-yl)methanone] |
| ≤ 500 nM | O=C(c1cnn2cc(-c3ccccn3)ccc12)N1CCc2[nH]cnc2[C@H]1c1nc2c(F)cccc2o1 [Example 543, (S)-(4-(4-fluorobenzo[d]oxazol-2-yl)-6,7-dihydro-1H-imidazo[4,5-c]pyridin-5(4H)-yl)(6-(pyridin-2-yl)pyrazolo[1,5-a]pyridin-3-yl)methanone] |
| 1000 to 5000 nM | O=C(c1cnn2cc(-c3ccccn3)ccc12)N1CCc2[nH]cnc2[C@@H]1c1nc2c(F)cccc2o1 [Example 544, (R)-(4-(4-fluorobenzo[d]oxazol-2-yl)-6,7-dihydro-1H-imidazo[4,5-c]pyridin-5(4H)-yl)(6-(pyridin-2-yl)pyrazolo[1,5-a]pyridin-3-yl)methanone] |
| 1000 to 5000 nM | O=C(c1nnc(-c2ccccn2)o1)N1CCc2[nH]cnc2[C@@H]1c1nc2ccc(F)c(F)c2o1 [Example 545, (R)-(4-(6,7-difluorobenzo[d]oxazol-2-yl)-6,7-dihydro-1H-imidazo[4,5-c]pyridin-5(4H)-yl)(5-(pyridin-2-yl)-1,3,4-oxadiazol-2-yl)methanone] |
| 500 to 1000 nM | O=C(c1nnc(-c2ccccn2)o1)N1CCc2[nH]cnc2[C@H]1c1nc2ccc(F)c(F)c2o1 [Example 546, (S)-(4-(6,7-difluorobenzo[d]oxazol-2-yl)-6,7-dihydro-1H-imidazo[4,5-c]pyridin-5(4H)-yl)(5-(pyridin-2-yl)-1,3,4-oxadiazol-2-yl)methanone] |
| 500 to 1000 nM | O=C(c1cnco1)N1CCc2[nH]cnc2[C@H]1c1nc2ccccc2o1 [Example 547, (S)-(4-(benzo[d]oxazol-2-yl)-6,7-dihydro-1H-imidazo[4,5-c]pyridin-5(4H)-yl)(oxazol-5-yl)methanone] |
| 1000 to 5000 nM | O=C(c1cnco1)N1CCc2[nH]cnc2[C@@H]1c1nc2ccccc2o1 [Example 548, (R)-(4-(benzo[d]oxazol-2-yl)-6,7-dihydro-1H-imidazo[4,5-c]pyridin-5(4H)-yl)(oxazol-5-yl)methanone] |
| 500 to 1000 nM | COc1ccc2oc([C@@H]3c4nc[nH]c4CCN3C(=O)c3nc(C(F)F)nn3C)nc2c1 [Example 549, (S)-(3-(difluoromethyl)-1-methyl-1H-1,2,4-triazol-5-yl)(4-(5-methoxybenzo[d]oxazol-2-yl)-6,7-dihydro-1H-imidazo[4,5-c]pyridin-5(4H)-yl)methanone] |
| 1000 to 5000 nM | COc1ccc2oc([C@H]3c4nc[nH]c4CCN3C(=O)c3nc(C(F)F)nn3C)nc2c1 [Example 550, (R)-(3-(difluoromethyl)-1-methyl-1H-1,2,4-triazol-5-yl)(4-(5-methoxybenzo[d]oxazol-2-yl)-6,7-dihydro-1H-imidazo[4,5-c]pyridin-5(4H)-yl)methanone] |
| 500 to 1000 nM | COc1ccc2oc([C@@H]3c4nc[nH]c4CCN3C(=O)c3ccnn3C(F)F)nc2c1 [Example 551, (S)-(1-(difluoromethyl)-1H-pyrazol-5-yl)(4-(5-methoxybenzo[d]oxazol-2-yl)-6,7-dihydro-1H-imidazo[4,5-c]pyridin-5(4H)-yl)methanone] |
| 1000 to 5000 nM | COc1ccc2oc([C@H]3c4nc[nH]c4CCN3C(=O)c3ccnn3C(F)F)nc2c1 [Example 552, (R)-(1-(difluoromethyl)-1H-pyrazol-5-yl)(4-(5-methoxybenzo[d]oxazol-2-yl)-6,7-dihydro-1H-imidazo[4,5-c]pyridin-5(4H)-yl)methanone] |
| 500 to 1000 nM | COc1ccc2oc([C@@H]3c4nc[nH]c4CCN3C(=O)c3nnc(-c4cnn(C)c4)o3)nc2c1 [Example 553, (S)-(4-(5-methoxybenzo[d]oxazol-2-yl)-6,7-dihydro-1H-imidazo[4,5-c]pyridin-5(4H)-yl)(5-(1-methyl-1H-pyrazol-4-yl)-1,3,4-oxadiazol-2-yl)methanone] |
| 1000 to 5000 nM | COc1ccc2oc([C@H]3c4nc[nH]c4CCN3C(=O)c3nnc(-c4cnn(C)c4)o3)nc2c1 [Example 554, (R)-(4-(5-methoxybenzo[d]oxazol-2-yl)-6,7-dihydro-1H-imidazo[4,5-c]pyridin-5(4H)-yl)(5-(1-methyl-1H-pyrazol-4-yl)-1,3,4-oxadiazol-2-yl)methanone] |
| 500 to 1000 nM | COc1ccc2oc([C@@H]3c4nc[nH]c4CCN3C(=O)c3nnc(-c4ccccn4)o3)nc2c1 [Example 555, (S)-(4-(5-methoxybenzo[d]oxazol-2-yl)-6,7-dihydro-1H-imidazo[4,5-c]pyridin-5(4H)-yl)(5-(pyridin-2-yl)-1,3,4-oxadiazol-2-yl)methanone] |
| 1000 to 5000 nM | COc1ccc2oc([C@H]3c4nc[nH]c4CCN3C(=O)c3nnc(-c4ccccn4)o3)nc2c1 [Example 556, (R)-(4-(5-methoxybenzo[d]oxazol-2-yl)-6,7-dihydro-1H-imidazo[4,5-c]pyridin-5(4H)-yl)(5-(pyridin-2-yl)-1,3,4-oxadiazol-2-yl)methanone] |
| ≤ 500 nM | CC(C)(O)c1nc(C2CC2)c(C(=O)N2CCc3[nH]cnc3[C@H]2c2nc3cc(F)ccc3o2)o1 [Example 557, (S)-(4-cyclopropyl-2-(2-hydroxypropan-2-yl)oxazol-5-yl)(4-(5-fluorobenzo[d]oxazol-2-yl)-6,7-dihydro-1H-imidazo[4,5-c]pyridin-5(4H)-yl)methanone] |
| 1000 to 5000 nM | CC(C)(O)c1nc(C2CC2)c(C(=O)N2CCc3[nH]cnc3[C@@H]2c2nc3cc(F)ccc3o2)o1 [Example 558, (R)-(4-cyclopropyl-2-(2-hydroxypropan-2-yl)oxazol-5-yl)(4-(5-fluorobenzo[d]oxazol-2-yl)-6,7-dihydro-1H-imidazo[4,5-c]pyridin-5(4H)-yl)methanone] |
| ≤ 500 nM | O=C(c1oc(-c2ccncc2)nc1C(F)F)N1CCc2[nH]cnc2[C@@H]1c1nc2cccc(F)c2o1 [Example 559, (R)-(4-(difluoromethyl)-2-(pyridin-4-yl)oxazol-5-yl)(4-(7-fluorobenzo[d]oxazol-2-yl)-6,7-dihydro-1H-imidazo[4,5-c]pyridin-5(4H)-yl)methanone] |
| ≤ 500 nM | O=C(c1oc(-c2ccncc2)nc1C(F)F)N1CCc2[nH]cnc2[C@H]1c1nc2cccc(F)c2o1 [Example 560, (S)-(4-(difluoromethyl)-2-(pyridin-4-yl)oxazol-5-yl)(4-(7-fluorobenzo[d]oxazol-2-yl)-6,7-dihydro-1H-imidazo[4,5-c]pyridin-5(4H)-yl)methanone] |
| 500 to 1000 nM | Cn1nc(C(F)F)nc1C(=O)N1CCc2[nH]cnc2[C@H]1c1nc2ccccc2o1 [Example 561, (S)-(4-(benzo[d]oxazol-2-yl)-6,7-dihydro-1H-imidazo[4,5-c]pyridin-5(4H)-yl)(3-(difluoromethyl)-1-methyl-1H-1,2,4-triazol-5-yl)methanone] |
| 1000 to 5000 nM | Cn1nc(C(F)F)nc1C(=O)N1CCc2[nH]cnc2[C@@H]1c1nc2ccccc2o1 [Example 562, (R)-(4-(benzo[d]oxazol-2-yl)-6,7-dihydro-1H-imidazo[4,5-c]pyridin-5(4H)-yl)(3-(difluoromethyl)-1-methyl-1H-1,2,4-triazol-5-yl)methanone] |
| ≤ 500 nM | O=C(c1ccnn1C(F)F)N1CCc2[nH]cnc2[C@H]1c1nc2ccccc2o1 [Example 563, (S)-(4-(benzo[d]oxazol-2-yl)-6,7-dihydro-1H-imidazo[4,5-c]pyridin-5(4H)-yl)(1-(difluoromethyl)-1H-pyrazol-5-yl)methanone] |
